As usually defined, the Ki is a dissociation constant, usually derived from enzyme kinetics or from competition with a known ligand.

We go through 2 compounds from patent US9532983B2, “Benzofuran compounds, compositions, kits and/or methods thereof” (Savannah State University, priority 2013, dated 2017).

In one assay the target is T1, M4 (Homo sapiens, UniProt P08173).
T1 construct: expressed in transfected cells
T1 sequence (P08173 1-479): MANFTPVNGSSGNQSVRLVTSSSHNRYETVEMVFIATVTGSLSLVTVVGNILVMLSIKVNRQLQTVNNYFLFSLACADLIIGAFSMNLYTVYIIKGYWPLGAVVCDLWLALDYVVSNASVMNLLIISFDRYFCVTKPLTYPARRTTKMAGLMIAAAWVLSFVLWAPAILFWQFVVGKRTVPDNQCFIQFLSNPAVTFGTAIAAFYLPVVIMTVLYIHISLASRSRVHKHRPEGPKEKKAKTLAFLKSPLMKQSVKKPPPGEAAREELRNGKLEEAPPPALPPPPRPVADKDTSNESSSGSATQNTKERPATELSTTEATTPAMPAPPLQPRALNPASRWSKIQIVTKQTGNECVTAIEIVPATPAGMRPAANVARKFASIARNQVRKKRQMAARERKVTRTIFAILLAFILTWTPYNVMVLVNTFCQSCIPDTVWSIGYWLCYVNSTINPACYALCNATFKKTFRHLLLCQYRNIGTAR
Description: Secondary binding assay, Ki determination: M4.

The subject of a further assay is non-sigma receptors. Kind of assay: Binding screen against panel of non-sigma receptors (overall statement). As for the experimental part:
Initial primary binding screening assays were performed using a 50 μM (initial)−10 μM (final) assay concentration of reference and test compounds.

The structures appear in SMILES notation.

Consider `COc1cc2oc(C(=O)N(CCCN3CCCCC3)c3ccccc3)c(C)c2cc1OC` [KSCM-1, 5,6-Dimethoxy-3-methyl-N-phenyl-N-(3-(piperidin-1-yl)propyl)benzofuran-2-carboxamide], for which, on M4, the Ki was found to be 2870 nM.
For `COc1ccc2c(C)c(C(=O)N(CCCN3CCCCC3)c3ccccc3)oc2c1` [KSCM-11, 6-Methoxy-3-methyl-N-phenyl-N-(3-(piperidin-1-yl)propyl)benzofuran-2-carboxamide], in the assay with non-sigma receptors, the “affinity at non-sigma receptors selected for secondary binding assay (in words)” value is listed as “no significant affinity”; the “selectivity for sigma receptors (σ1 and σ2) over non-sigma receptors (in words)” value is recorded as “have the desired selectivity for sigma receptors”.
